Measurements: publication PMC5748281 (ACS Omega, 2017)
“Also recorded” adds a separate entry of the source. Where two headings read alike, the source gives them in different places.

Tests used:
yeast cells = details: cited from earlier work
S. cerevisiae [1] = assay: Growth inhibition assay, 96-well microplate format; type: cell-based, Saccharomyces cerevisiae; details: for IC80: read-out: log 1/IC80 Obsd (converted)
S. cerevisiae [2] = assay: DEL; details: IC80 concentration; for Induction of deletion, fold increase over untreated control, Obsd: 17 h, DEL(URA3) strain, average of three samples; for deletion formation / genotoxicity in words: DEL assay
[3] = system: DNA repair null mutant yeast strains; type: cell-based, Saccharomyces cerevisiae
Water solubility = type: physicochemical; details: water / assay medium
yeast = details: aniline metabolites in yeast; cited from earlier work
[4] = Saccharomyces cerevisiae, 17 h, read-out: log 1/IC50 Obsd (converted)

Compound	log 1/ICFR50 Obsd (yeast cells)	IC50 (S. cerevisiae [1]; [4]) [µM]	IC80 (S. cerevisiae [1]; Saccharomyces cerevisiae, 17 h) [µM]	other results
Oc1ccccc1Br [2-Br]	2.08	–	–	–
Oc1c(Cl)cccc1Cl [2,6-Cl2]	2.52	–	–	–
Oc1cc(Cl)c(Cl)cc1Cl [2,4,5-Cl3]	3.26	–	–	–
Oc1c(F)c(F)c(F)c(F)c1F [2,3,4,5,6-F5]	2.05	–	–	–
COc1cc(O)cc(OC)c1 [3,5-(OCH3)2]	1.54	–	–	–
Cc1ccc(O)c([N+](=O)[O-])c1 [4-CH3,2-NO2]	2.1	–	–	–
Oc1ccc(F)cc1 [4-F, 4-fluorophenol]	–	4790	6170	Induction of deletion, fold increase over untreated control, Obsd (S. cerevisiae [2]): 2.03 fold
N#Cc1ccc(O)cc1 [4-CN, 4-cyanophenol]	–	3020	5500	Induction of deletion, fold increase over untreated control, Obsd (S. cerevisiae [2]): 1.25 fold
Cc1ccc(O)c(N)c1 [2-NH2,4-CH3]	1.07	–	–	–
CCCCCc1ccc(O)cc1 [4-(CH2)4CH3, 4-pentylphenol]	–	89.1	110	–
Oc1ccc(Cl)cc1Cl [2,4-Cl2]	2.77	–	–	–
Cc1cc(C(C)(C)C)c(O)c(C(C)(C)C)c1 [BHT, 2,6-di-tert-butyl-4-methyl-phenol]	–	132	251	growth phenotype of DNA repair null mutant strains [3]: unresponsive; also recorded: negligible; also recorded: did not cause clear growth defects
Oc1cccc(C(F)(F)F)c1 [3-CF3]	2.31	–	–	–
CC(C)(C)c1cc(O)cc(C(C)(C)C)c1 [3,5-(C(CH3)3)2]	3.96	–	–	–
COc1ccc(O)c(C(C)(C)C)c1 [BHA, butylated hydroxy anisole]	–	–	–	log 1/IC80 Obsd (S. cerevisiae [1]; 80% inhibition of yeast growth, 17 h, 30 °C, OD 655 nm): 3.37; log 1/IC50 Obsd (S. cerevisiae [1]; inhibition of yeast growth, 17 h, 30 °C, OD 655 nm): 3.72; deletion formation / genotoxicity in words (S. cerevisiae [2]): significant increase in deletion events; growth phenotype of DNA repair null mutant strains [3]: growth defects in most of the DNA repair null mutant strains tested; also recorded: some level of growth defect; growth phenotype of Δrad4 strain [3]: more resistant; growth phenotype of Δrad14 strain [3]: increased sensitivity
Oc1ccc(I)cc1 [4-I]	2.4	–	–	–
Oc1c(I)cc(I)cc1I [2,4,6-(I)3]	4.3	–	–	–
CCCCCCCCCCCCc1ccc(O)cc1 [4-dodecylphenol]	–	–	–	inhibition at 350 µM (S. cerevisiae [1]; Saccharomyces cerevisiae, read-out: growth inhibition): 40%; solubility in words (Water solubility): poor water solubility
CCCCCCCCCc1ccc(O)cc1 [4-(CH2)8CH3, 4-nonylphenol]	–	20	39.8	IC50 (S. cerevisiae [1]; Saccharomyces cerevisiae, 17 h): 20 µM; Induction of deletion, fold increase over untreated control, Obsd (S. cerevisiae [2]): 2.58 fold
COc1ccc(O)cc1 [4-OCH3, 4-methoxyphenol]	–	10500	12300	Induction of deletion, fold increase over untreated control, Obsd (S. cerevisiae [2]): 2.01 fold

Compound	log 1/ICFR50 Obsd (yeast cells)	IC50 (S. cerevisiae [1]; [4]) [µM]	IC80 (S. cerevisiae [1]; Saccharomyces cerevisiae, 17 h) [µM]	other results
Oc1ccccc1O [2-OH (catechol), catechol]	–	2240	3390	Induction of deletion, fold increase over untreated control, Obsd (S. cerevisiae [2]): 2.26 fold
CC(=O)Nc1ccc(O)cc1 [4-acetamidophenol]	–	–	–	increase in deletion frequencies in words (yeast): did not show a significant increase
CCOc1ccc(O)cc1 [4-OC2H5, 4-ethoxyphenol]	–	6760	7940	–
Oc1ccc(Cl)cc1 [4-Cl, 4-chlorophenol]	2.07	1350	1660	Induction of deletion, fold increase over untreated control, Obsd (S. cerevisiae [2]): 1.85 fold
Oc1c(Cl)c(Cl)c(Cl)c(Cl)c1Cl [2,3,4,5,6-Cl5]	3.96	–	–	–
Oc1ccc(Br)cc1 [4-Br, 4-bromophenol]	2.4	832	1100	–
Cc1cc(O)cc(C)c1Cl [4-Cl, 3,5-(CH3)2]	2.96	–	–	–
Oc1ccccc1 [4-H, phenol]	1.17	11000	14100	Induction of deletion, fold increase over untreated control, Obsd (S. cerevisiae [2]): 2.27 fold
Oc1cc(Cl)c(Cl)c(Cl)c1Cl [2,3,4,5-Cl4]	3.92	–	–	–
O=C(O)c1ccc(O)cc1 [4-COOH]	1.75	–	–	–
CCCOc1ccc(O)cc1 [4-OC3H7, 4-propoxyphenol]	–	1820	2240	–
COc1ccc(O)cc1C(C)(C)C [3-C(CH3)3,4-OCH3, 3-tert-butyl-4-methoxy-phenol]	–	380	490	deletion formation / genotoxicity in words (S. cerevisiae [2]; listed as BHA-3): do not increase the deletion formation; Induction of deletion, fold increase over untreated control, Obsd (S. cerevisiae [2]): 1.17 fold
COc1ccc(O)c(C(C)(C)C)c1 [2-C(CH3)3,4-OCH3, 2-tert-butyl-4-methoxy-phenol]	–	288	407	Induction of deletion, fold increase over untreated control, Obsd (S. cerevisiae [2]): 2.57 fold; Induction of deletion, fold increase over untreated control, Obsd (S. cerevisiae [2]; listed as BHA-2): greater than 2 fold
O=[N+]([O-])c1ccc(O)cc1 [4-NO2, 4-nitrophenol]	2.85	603	813	–
Oc1cccc(Cl)c1Cl [2,3-Cl2]	2.68	–	–	–
CC(C)(c1ccc(O)cc1)c1ccc(O)cc1 [bisphenol-A, bisphenol A]	–	676	813	–
Oc1ccc(O)cc1 [4-OH, hydroquinone]	–	27500	40700	Induction of deletion, fold increase over untreated control, Obsd (S. cerevisiae [2]): 2.25 fold
CCCCOc1ccc(O)cc1 [4-OC4H9, 4-butoxyphenol]	–	525	692	–
Oc1cc(Cl)c(Cl)c(Cl)c1 [3,4,5-Cl3]	3.3	–	–	–
Oc1c(Cl)cc(Cl)cc1Cl [2,4,6-Cl3]	3.28	–	–	–
